The values below come from patent publication US7511144B2, “Reverse hydroxamic acid derivatives” (Kaken Pharmaceutical Co., Ltd., priority 2001, dated 2009).

Read-outs that look alike come from different tables or passages of the source. Bounds are passed on as bounds.

Common to all, as to assay type: biochemical
The target in one test is T1, TACE (Homo sapiens, UniProt P78536).
T1 construct: made in house; host or cells: mammalian cells or insect cells
Briefly: TACE inhibition experiment (in vitro).

A further test has as its target T2, Human MMP2 (Homo sapiens, UniProt P08253).
T2 construct: purchased Calbiochem 444213
T2 sequence (P08253 110-660): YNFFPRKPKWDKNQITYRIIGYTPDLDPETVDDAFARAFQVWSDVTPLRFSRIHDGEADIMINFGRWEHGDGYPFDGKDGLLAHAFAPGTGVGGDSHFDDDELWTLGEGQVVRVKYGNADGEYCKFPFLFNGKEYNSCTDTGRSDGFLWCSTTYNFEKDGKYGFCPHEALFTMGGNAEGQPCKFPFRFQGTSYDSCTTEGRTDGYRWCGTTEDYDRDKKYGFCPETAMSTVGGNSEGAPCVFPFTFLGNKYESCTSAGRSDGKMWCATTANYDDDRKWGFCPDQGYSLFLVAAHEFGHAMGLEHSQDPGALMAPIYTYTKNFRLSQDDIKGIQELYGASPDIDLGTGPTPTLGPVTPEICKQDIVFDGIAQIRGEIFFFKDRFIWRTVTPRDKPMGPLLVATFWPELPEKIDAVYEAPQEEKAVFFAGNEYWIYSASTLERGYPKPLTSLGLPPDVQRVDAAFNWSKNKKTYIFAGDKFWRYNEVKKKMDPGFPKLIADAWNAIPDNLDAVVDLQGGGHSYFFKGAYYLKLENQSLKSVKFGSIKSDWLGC
Description: MMP2 inhibition experiment. The settings on record: concentration required for 50% inhibition of enzyme activity; read-out: IC50 value MMP-2.

Another test deals with T3, Human MMP17 (Homo sapiens, UniProt Q9ULZ9).
T3 construct: purchased Calbiochem 475940
T3 sequence (Q9ULZ9 126-300 limits assumed): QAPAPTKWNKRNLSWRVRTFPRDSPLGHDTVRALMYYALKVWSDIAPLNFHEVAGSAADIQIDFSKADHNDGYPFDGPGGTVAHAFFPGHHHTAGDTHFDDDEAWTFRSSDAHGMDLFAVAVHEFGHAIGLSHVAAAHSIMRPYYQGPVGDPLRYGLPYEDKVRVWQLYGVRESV
Briefly: MMP17 inhibition test. The settings on record: concentration required for 50% inhibition of enzyme activity; read-out: IC50 value MMP-17.

A further test addresses T4, Human MMP9 (Homo sapiens, UniProt P14780).
T4 construct: purchased Calbiochem 444231
Briefly: MMP9 inhibition experiment. The settings on record: read-out: IC50 value MMP-9.

A further test addresses T5, Human MMP3 (Homo sapiens, UniProt P08254).
T5 construct: purchased Calbiochem 444217
Briefly: MMP3 inhibition experiment. The settings on record: concentration required for 50% inhibition of enzyme activity; read-out: IC50 value MMP-3. As for the experimental part:
(§1) MMP inhibition experiment may be carried out using a fluorescent synthetic substrate according to, for example, the methods of Bickett et al. (D. Mark Bickett et al., Anal. Biochem., 1993, 212, 58-64) and Nagase et al. (H. Nagase et al., J. Biol. Chem., 1994, 269, 20952-20957). The methods of inhibition experiments carried out for various MMPs are described below.
Human MMP3 (Calbiochem #444217) in 90 μL (5 ng) prepared in the assay buffer A was added to 90 μL of 20 μM fluorescent substrate NFF-3(MOCAc-Arg-Pro-Lys-Pro-Val-Glu-Nva-Trp-Arg-Lys(Dnp)-NH2, Peptide Institute, Inc., #3168-v) prepared in the assay buffer B, followed by reaction for 5 hours at 37° C.

The target in a further test is T6, Human MMP14 (Homo sapiens, UniProt P50281).
T6 construct: purchased Biogenesis or Calbiochem 5980-1461 or 475935
Briefly: MMP14 inhibition experiment. The settings on record: concentration required for 50% inhibition of enzyme activity; read-out: IC50 value MMP-14. The protocol: as §1
Human MMP14 (Biogenesis #5980-1461 or Calbiochem #475935) in amount of 90 μL (4 ng) prepared in the assay buffer A was added to 90 μL of 20 μM fluorescent substrate (Dnp-Pro-Cha-Gly-Cys(Me)-His-Ala-Lys(Nma)-NH2) prepared in the assay buffer B, followed by reaction for 5 hours at 37° C.

Another test concerns the target T7, Human MMP13 (Homo sapiens, UniProt P45452).
T7 construct: purchased Chemicon CC068
Description: MMP13 inhibition experiment.

A further test addresses T8, Human MMP1 (Homo sapiens, UniProt P03956).
T8 construct: purchased Calbiochem 444208
T8 sequence (P03956 100-469): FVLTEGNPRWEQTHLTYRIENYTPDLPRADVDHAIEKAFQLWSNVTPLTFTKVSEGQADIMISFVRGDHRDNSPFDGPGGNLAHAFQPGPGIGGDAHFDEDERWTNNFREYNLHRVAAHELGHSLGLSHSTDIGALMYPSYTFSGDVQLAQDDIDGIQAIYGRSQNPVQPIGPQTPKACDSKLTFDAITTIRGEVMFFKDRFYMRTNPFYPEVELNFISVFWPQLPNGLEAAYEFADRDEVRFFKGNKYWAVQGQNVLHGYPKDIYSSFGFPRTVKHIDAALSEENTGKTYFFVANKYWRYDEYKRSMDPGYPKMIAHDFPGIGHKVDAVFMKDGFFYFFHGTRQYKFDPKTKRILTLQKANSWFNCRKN
Description: MMP1 inhibition experiment. The settings on record: read-out: IC50 value MMP-1.

Where [1] appears, read: concentration required for 50% inhibition of enzyme activity, read-out: IC50 value MMP-13.
Setting [2] is: concentration required for 50% inhibition of enzyme activity.

T5 sequence (P08254 100-272 limits assumed): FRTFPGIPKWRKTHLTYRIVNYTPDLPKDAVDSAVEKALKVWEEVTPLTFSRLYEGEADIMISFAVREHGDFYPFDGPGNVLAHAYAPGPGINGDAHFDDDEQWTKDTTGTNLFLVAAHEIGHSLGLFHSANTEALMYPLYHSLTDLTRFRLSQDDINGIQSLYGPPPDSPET
T4 sequence (P14780 107-707 limits assumed): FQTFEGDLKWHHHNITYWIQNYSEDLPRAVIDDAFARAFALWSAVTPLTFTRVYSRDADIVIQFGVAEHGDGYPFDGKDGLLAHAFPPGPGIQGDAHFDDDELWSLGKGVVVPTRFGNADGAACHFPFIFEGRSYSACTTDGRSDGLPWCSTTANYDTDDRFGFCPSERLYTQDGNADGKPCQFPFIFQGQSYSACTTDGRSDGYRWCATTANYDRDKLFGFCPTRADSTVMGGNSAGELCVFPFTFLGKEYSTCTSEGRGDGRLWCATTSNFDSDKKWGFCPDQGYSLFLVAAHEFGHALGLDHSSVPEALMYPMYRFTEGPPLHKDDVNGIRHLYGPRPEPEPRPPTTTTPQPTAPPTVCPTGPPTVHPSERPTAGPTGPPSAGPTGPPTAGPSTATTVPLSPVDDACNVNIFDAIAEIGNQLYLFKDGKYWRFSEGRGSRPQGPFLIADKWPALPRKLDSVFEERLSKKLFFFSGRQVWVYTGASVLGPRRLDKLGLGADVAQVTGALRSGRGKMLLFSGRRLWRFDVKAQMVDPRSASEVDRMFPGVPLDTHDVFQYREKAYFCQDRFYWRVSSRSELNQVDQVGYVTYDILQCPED
T1 sequence (P78536 215-824): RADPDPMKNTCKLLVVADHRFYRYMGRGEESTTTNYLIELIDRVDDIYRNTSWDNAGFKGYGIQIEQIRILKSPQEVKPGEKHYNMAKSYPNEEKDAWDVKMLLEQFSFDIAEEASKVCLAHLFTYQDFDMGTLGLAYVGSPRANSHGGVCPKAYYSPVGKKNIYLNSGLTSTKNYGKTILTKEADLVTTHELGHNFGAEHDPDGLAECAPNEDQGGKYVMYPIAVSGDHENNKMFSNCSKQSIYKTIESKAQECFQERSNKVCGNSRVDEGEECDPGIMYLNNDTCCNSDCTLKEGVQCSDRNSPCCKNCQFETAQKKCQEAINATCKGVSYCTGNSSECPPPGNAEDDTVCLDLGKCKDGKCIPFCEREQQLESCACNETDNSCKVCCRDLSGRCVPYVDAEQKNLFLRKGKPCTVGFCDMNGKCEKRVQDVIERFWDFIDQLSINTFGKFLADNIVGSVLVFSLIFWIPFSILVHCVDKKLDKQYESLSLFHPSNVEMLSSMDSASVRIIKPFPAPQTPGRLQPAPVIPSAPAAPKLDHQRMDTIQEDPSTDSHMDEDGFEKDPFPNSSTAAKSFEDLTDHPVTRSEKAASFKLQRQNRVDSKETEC
Description for Human MMP13: Human MMP13 (Chemicon #CC068) in amount of 90 μL (200 ng) was activated by mixing with 10 μL of 10 mM APMA, followed by reaction for 1 hour at 37° C. This enzyme solution in amount of 0.6 μL was diluted to 90 μL with the assay buffer A, which was added to 90 μL of 20 μM fluorescent substrate (Dnp-Pro-Cha-Gly-Cys(Me)-His-Ala-Lys(Nma)-NH2) prepared in the assay buffer B, followed by reaction for 4 hours at 37° C.
Description for Human MMP2: This enzyme solution in amount of 10 μL was diluted to 90 μL with the assay buffer A, which was added to 90 μL of 20 μM fluorescent substrate (MOCAc((7-methoxycoumarin-4-yl)acetyl)-Pro-Leu-Gly-Leu-A2pr(Dnp)-Ala-Arg-NH2, Peptide Institute, Inc., #3163-v) prepared in the assay buffer B, followed by reaction for 5 hours at 37° C.
Description for Human MMP9: This enzyme solution in amount of 1 μL was diluted to 90 μL with the assay buffer A, which was added to 90 μL of 20 μM fluorescent substrate (Dnp-Pro-Cha-Gly-Cys(Me)-His-Ala-Lys(Nma)-NH2) prepared in the assay buffer B, followed by reaction for 4 hours at 37° C.
Description for TACE: TACE inhibition experiments were conducted using TACE obtained as above as an enzyme and by measuring TACE activity in the presence or absence of a test substance using Nma (N-metylanthranilic acid)-[sequence]Dnp(dinitrophenyl)-D-Arg-NH2 being a fluorescent synthetic substrate which contains the sequence of cleavage site of membrane-bound TNF by TACE, as a substrate.
More specifically, 14 units of an enzyme solution (1 unit is defined as the amount of enzyme which degrades 1 pmol of the substrate per minute at 25° C.) which was prepared in 90 μL of assay buffer A (50 mM Tris-HCl buffer (pH 7.5) containing 200 mM sodium chloride, 5 mM calcium chloride, 10 μM zinc sulfate, 0.004% sodium azide and 2 mg/mL bovine serum albumin) and 90 μL of 20 μM fluorescent synthetic substrate prepared in assay buffer B (50 mM Tris-HCl buffer (pH 7.5) containing 200 mM sodium chloride, 5 mM calcium chloride, 10 μM zinc sulfate, 0.004% sodium azide and 0.05% PLURONIC F-68) are mixed and reacted for 2 hours at 37° C.

Turning to `Cc1cc(COc2ccc(S(=O)(=O)CC(C=C3CCSCC3)N(O)C(N)=O)cc2)c2ccccc2n1` (centres unmarked) [Example I-125, 1-hydroxy-1-{2-[4-(2-methylquinolin-4-ylmethoxy)benzenesulfonyl]-1-(tetrahydrothiopyran-4-ylidenemethyl)ethyl}urea], the IC50 at TACE was 630 nM; at Human MMP2, over 100 µM; on Human MMP17, over 100 µM; on Human MMP9, over 100 µM; at Human MMP3 it was over 100 µM; at Human MMP14 it was over 100 µM. For the same compound, the IC50 on Human MMP13 (setting [1]) and at Human MMP1 was over 100 µM each time.

`Cc1cc(COc2ccc(S(=O)(=O)CC(C(F)=C3CCOCC3)N(O)C=O)cc2)c2ccccc2n1` (centres unmarked) [Example I-16]: the IC50 is 7 nM against TACE; 40 µM on Human MMP2; 5.5 µM at Human MMP17; over 100 µM at Human MMP9; 10 µM on Human MMP3; over 100 µM on Human MMP14. Further, the IC50 on Human MMP13 (setting [1]) is 40 µM; on Human MMP1, over 100 µM.

As to `Cc1cc(COc2ccc(S(=O)(=O)CC(C=C3CCC(=O)CC3)N(O)C=O)cc2)c2ccccc2n1` (centres unmarked) [Example I-3, N-Hydroxy-N-[2-{4-(2-methylquinolin-4-ylmethoxy)benzenesulfonyl}-1-(4-oxocyclohexylidenemethyl)ethyl]formamide], the IC50 at TACE (setting [2]) was 3.5 nM; on Human MMP17, 2.5 µM; on Human MMP9 (setting [2]), 50 µM; at Human MMP3, 6.3 µM; at Human MMP14 it was 43 µM; at Human MMP13 (setting [1]), 22 µM. Besides, the IC50 at Human MMP1 is over 100 µM.

`Cc1cc(C)cc(COc2ccc(S(=O)(=O)CC(C=C3CCC(=O)CC3)N(O)C=O)cc2)c1` (centres unmarked) [Example I-92]: the IC50 against TACE is 300 nM; at Human MMP2, 43 µM; on Human MMP17 it was 40 µM; on Human MMP9, 60 µM; at Human MMP3 it was 60 µM; at Human MMP14 it was over 100 µM. The IC50 at Human MMP13 (setting [1]) is 35 µM; on Human MMP1 it was over 100 µM.

In the case of `Cc1cc(COc2ccc(S(=O)(=O)CC(CC3CCC4(CC3)OCCO4)N(O)C=O)cc2)c2ccccc2n1` (centres unmarked) [Example I-10], the IC50 against TACE (setting [2]) was found to be 60 nM; at Human MMP2, 6 µM; on Human MMP17, 1.1 µM; at Human MMP9 (setting [2]) it was 12 µM; on Human MMP3 it was 1.2 µM; at Human MMP14, 23 µM. In addition, the IC50 worked out at 5 µM on Human MMP13 (setting [1]) and 45 µM at Human MMP1.

For the compound `Cc1cc(Cl)cc(COc2ccc(S(=O)(=O)CC(C=C3CCC4(CC3)OCCO4)N(O)C=O)cc2)c1` (centres unmarked) [Example I-103], the IC50 against TACE amounted to 500 nM; at Human MMP2, 38 µM; at Human MMP17, 40 µM; at Human MMP9, 38 µM; on Human MMP3, 30 µM; at Human MMP14, 33 µM. Moreover, the figures for the IC50 on Human MMP13 (setting [1]) and at Human MMP1 were 25 µM and 60 µM, respectively.

Regarding `COc1cc(C)cc(COc2ccc(S(=O)(=O)CC(C=C3CCC(=O)CC3)N(O)C=O)cc2)c1` (centres unmarked) [Example I-94], the IC50 amounted to 80 nM at TACE; 23 µM on Human MMP2; 22 µM on Human MMP17; 40 µM on Human MMP9; 21 µM on Human MMP3; 40 µM at Human MMP14. Besides, the figures for the IC50 at Human MMP13 (setting [1]) and on Human MMP1 were 20 µM and 90 µM, respectively.

`Cc1cc(COc2ccc(S(=O)(=O)CC(C(Cl)=C3CCOCC3)N(O)C=O)cc2)c2ccccc2n1` (centres unmarked) [Example I-19]: the IC50 is 6.3 nM on TACE; over 100 µM at Human MMP2; 7 µM at Human MMP17; over 100 µM at Human MMP9; 20 µM on Human MMP3; over 100 µM on Human MMP14. The IC50 is 70 µM at Human MMP13 (setting [1]) and over 100 µM on Human MMP1.

As for `CC[C@H](C)[C@H](NC(=O)[C@H](CC(C)C)[C@H](C(C)C)N(O)C=O)C(=O)Nc1ccccn1` [compound 3, (2R,3S)-3-(formylhydroxyamino)-2-(2-methyl-1-propyl)-4-methylpentanoic acid [(1S,2S)-2-methyl-1-(pyridin-2-ylcarbamoyl)-1-butyl]amide, reference compound], the IC50 at TACE was 35 nM; at Human MMP17, 0.013 µM; at Human MMP9, 0.03 µM; on Human MMP3, 0.03 µM; at Human MMP14, 0.07 µM; at Human MMP13 (IC50 value MMP-13, concentration required for 50% inhibition of enzyme activity) it was 0.01 µM. Besides, the IC50 on Human MMP1 was 0.045 µM.

`COc1cc(C)cc(COc2ccc(S(=O)(=O)CC(C3CCC4(CC3)OCCO4)N(O)C=O)cc2)c1` (centres unmarked) [Example I-8, N-[1-(1,4-Dioxaspiro[4.5]dec-8-yl)-2-{4-(3-methoxy-5-methylbenzyloxy)benzenesulfonyl}ethyl]-N-hydroxyformamide]: the IC50 at TACE was determined as 80 nM; on Human MMP17, 2 µM; at Human MMP9, 35 µM; at Human MMP3, 2 µM; at Human MMP14 it was 40 µM; at Human MMP13 (setting [1]) it was 2.2 µM. For the same compound, the IC50 on Human MMP1 is over 100 µM.

As for `C=C1CCC(C(CS(=O)(=O)c2ccc(OCc3cc(C)cc(C)c3)cc2)N(O)C=O)CC1` (centres unmarked) [Example I-5, N-[2-{4-(3,5-Dimethylbenzyloxy)benzenesulfonyl}-1-(4-methylenecyclohexyl)ethyl]-N-hydroxyformamide], the IC50 at TACE was 430 nM; at Human MMP17, 5 µM; at Human MMP9, 22 µM; on Human MMP3, 20 µM; at Human MMP14, 25 µM; on Human MMP13 (setting [1]), 10 µM. For the same compound, on Human MMP1, the IC50 stood at 33 µM.

With `C=C1CCC(C(CS(=O)(=O)c2ccc(OCc3cc(C)cc(OC)c3)cc2)N(O)C=O)CC1` (centres unmarked) [Example I-7, N-Hydroxy-N-[2-{4-(3-methoxy-5-methylbenzyloxy)benzenesulfonyl)-1-(4-methylenecyclohexyl)ethyl]formamide], the IC50 came to 200 nM on TACE; 6 µM at Human MMP17; 30 µM at Human MMP9; 20 µM on Human MMP3; 40 µM on Human MMP14; 10 µM at Human MMP13 (setting [1]). Besides, the IC50 on Human MMP1 came to 43 µM.

On to `Cc1cc(COc2ccc(S(=O)(=O)N3CCSC(C)(C)[C@@H]3C(=O)NO)cc2)cc(C)n1` [compound 1, reference compound], for which the IC50 against TACE (setting [2]) turned out to be 10 nM; on Human MMP17, 0.02 µM; on Human MMP9 (setting [2]) it was 10 µM; on Human MMP3, 0.08 µM; at Human MMP14, 8 µM; at Human MMP13 (setting [1]), 0.2 µM. Moreover, the IC50 at Human MMP1 (setting [2]) stood at 20 µM.
